Laboratory results reported in patent EP4775203A1, “VANILLIC ACID DERIVATIVE COMPOUND, THERAPEUTIC AGENT COMPOSITION FOR ALZHEIMER'S DISEASE COMPRISING SAME, AND THERAPEUTIC AGENT COMPOSITION FOR NEUROINFLAMMATION” (Theranocure Co., Ltd., priority 2023, dated 2025).

Key:
CREB = experiment: Western blot for CREB / pCREB in LPS-treated cells; type: cell-based; settings: LPS 1000 ng/mL, 100 µM VD, with or without additive (PG)
Experimental: This experiment was performed to evaluate how VD regulates the CREB factor, which plays an important role in inflammatory signaling pathways. CREB (cAMP response element-binding protein) is a transcription factor that regulates various intracellular signaling pathways. When activated, CREB plays an important role in suppressing the NF-κB pathway. Since NF-κB is one of the major mediators of inflammatory responses, activation of CREB is closely associated with inflammation suppression. After inducing an inflammatory response in cells by treating them with LPS (1000 ng/mL), VD was subsequently administered at concentrations of 10 µM, 50 µM, and 100 µM. A group treated with both VD and the additive (propylene glycol, PG) was also included. Western blot analysis was then performed to examine the expression levels of CREB and its activated form, pCREB. β-actin was used as an internal control for protein quantification.

[1] = test system: Alzheimer's disease mouse model (5xFAD); experiment: Western blot of hippocampus and cerebral cortex proteins after IV treatment; type: in vivo
Experimental: This evaluation example was conducted to assess the effect of VD (vanillic acid-dopamine derivative) on the expression of specific proteins when administered to a 12-month-old Alzheimer's disease mouse model (5xFAD).
A total of 13 twelve-month-old 5xFAD mice were used in this experiment. The experiment was divided into three groups: (1) a normal wild-type group, (2) a dementia-induced group administered saline (5xFAD + saline), and (3) a dementia-induced group administered VD (5xFAD + VD). Each group received intravenous (IV) injections of the respective substance six times over a total period of 20 days. After completion of the treatment, the brains were harvested from the mice, and hippocampal tissue was isolated for further analysis. Protein expression of specific factors was evaluated using the hippocampal tissue. To extract proteins, the tissue was homogenized in RIPA buffer and centrifuged at 13,000 rpm for 15 minutes at 4°C. The supernatant was collected, and protein concentration was measured using a BCA protein assay kit. Equal amounts of protein were loaded onto 8.5% SDS-PAGE gels and transferred to an Immobilon-P membrane. The membranes were blocked with 3% bovine serum albumin (BSA) in Tris-buffered saline containing 0.05% Tween-20 (TBS-T) for 3 hours at room temperature. Thereafter, diluted primary antibodies were incubated overnight at 4°C in 3% BSA. The membranes were washed three times and then incubated with secondary antibodies for 1 hour. Western blot bands were detected using PicoEPD Western Reagent and SuperSignal™ West Femto Maximum Sensitivity Substrate, and images were captured using a chemiluminescent western imaging system. The obtained images were analyzed using ImageJ software.
FIGS. 14 and 15 show Western blot results analyzing changes in protein expression in the hippocampus and cerebral cortex, respectively, after treatment with VD (vanillic acid-dopamine derivative). These experiments were conducted using Alzheimer's disease model mice (5xFAD), and the expression levels of various inflammatory and neurodegeneration-related proteins were compared to evaluate the effect of VD. Both FIGS. 14 and 15 were conducted in two independent sets, with the left panels showing the results of the first set and the right panels showing the results of the second set.
This figure quantitatively evaluates the anti-inflammatory and neuroprotective effects of VD in Alzheimer's disease model mice (5xFAD). For this purpose, VD was administered to dementia model mice at two doses, 2 mg/kg and 4 mg/kg. The inflammatory and neurodegeneration-related factors analyzed in this experiment were as follows. NLRP3 is a protein complex acting as an inflammatory factor that plays an important role in regulating immune responses and inducing inflammation. BACE-1 (Beta-site Amyloid Precursor Protein Cleaving Enzyme 1) is an enzyme that cleaves amyloid precursor protein (APP) to generate β-amyloid. β-amyloid is one of the primary causative substances of Alzheimer's disease, and its accumulation is considered a key pathological feature of the disease. IBA-1 is a marker of microglial activation, indicating activation of microglia, which play a crucial role in immune and inflammatory responses in the brain. GFAP is a marker of astrocyte activation, and increased GFAP expression indicates activation of astrocytes. When astrocytes and microglia are activated, they secrete pro-inflammatory cytokines, thereby promoting inflammatory responses.

BV2 cells [2] = experiment: Cell viability assay (CCK-8); type: cell-based, mouse; settings: VD alone
Experimental: (§1) The cytotoxicity of the synthesized VD was evaluated through a cell viability assay. BV2 cells (normal mouse brain-derived cells) were used. The cells were cultured in a growth medium containing DMEM supplemented with 10% FBS (fetal bovine serum). The medium further contained 1% antibiotic-antimycotic solution, 1% insulin-transferrin-selenium, and 40 ng/mL dexamethasone, and the cells were incubated at 37°C in a humidified atmosphere containing 5% CO2. […] After maintaining the cells under serum-free conditions for 24 hours, subsequent incubation for 48 hours was performed using RPMI 1640 medium containing 10% FBS and […]. Thereafter, fresh complete medium containing Cell Counting Kit-8 (CCK-8) solution was added to the plate and incubated for 3 hours. Cell viability was measured by absorbance at 450 nm using a SpectraMax® i3 (Molecular Devices, CA, U.S.).

[3] = Cell viability assay (CCK-8); type: cell-based, mouse; settings: mouse, bv2 cells, VD + additive propylene glycol (PG)
Experimental: as §1

NLRP3 = experiment: Western blot of inflammatory factors in LPS-treated cells; type: cell-based; settings: compared to LPS-only treated group
Experimental: (§2) This in vitro experiment was performed to evaluate the ability of VD to suppress inflammatory responses. After extracting proteins from treated cells, the expression levels of inflammatory factors such as IL-6, iNOS, NLRP3, and TNF-α were analyzed by Western blotting. β-actin was used as an internal control for protein quantification. […] Accordingly, it may be concluded that VD affects both inflammatory and pro-inflammatory factors.

iNOS = experiment: Western blot of pro-inflammatory factors in LPS-treated cells; type: cell-based; settings: compared to LPS-only treated group
Experimental: as §2

TNF-α = experiment: as above; type: cell-based; settings: compared to LPS-only treated group
Experimental: as §2

IL-6 = experiment: as above; type: cell-based; settings: compared to LPS-only treated group
Experimental: as §2

BV2 cells [4] = experiment: Nitric oxide (NO) secretion analysis (Griess reagent) after LPS treatment; type: cell-based, mouse; settings: LPS 2 hours, then VD 12 hours; all tested concentrations (up to 100 µM); compared to LPS-only group
Experimental: This evaluation example was conducted to assess the effect of VD on nitric oxide (NO) secretion. Nitric oxides such as NO are inflammatory mediators that increase during inflammatory responses or infection and serve as important indicators of inflammation severity. By determining whether VD can inhibit NO secretion, the anti-inflammatory effect of VD was evaluated. After stabilizing BV2 cells, the cells were treated with LPS for 2 hours, followed by the addition of VD and incubation for 12 hours. The supernatant was collected from the cultured cells and centrifuged at 5,000 rpm for 2 minutes at 4°C. The analysis was performed using a Griess reagent kit, and the concentration of nitric oxide was calculated by measuring absorbance at 540 nm.

NF-κB = experiment: Western blot for pNF-κB in LPS-treated cells; type: cell-based; settings: LPS 1000 ng/mL, 100 µM VD
Experimental: This experiment was conducted to evaluate how VD regulates the NF-κB pathway, which plays a critical role in inflammatory responses. NF-κB is a key transcription factor that regulates inflammatory responses, and when activated within cells, it promotes the expression of inflammatory cytokines. Therefore, inhibition of NF-κB activation may play an important role in suppressing inflammation. CREB acts upstream of the NF-κB pathway, and activation of CREB is associated with inhibition of the NF-κB pathway. Cells were treated with LPS (1000 ng/mL) to activate the NF-κB pathway and induce an inflammatory response, followed by treatment with VD at a concentration of 100 µM. A group treated with both VD and the additive (propylene glycol, PG) was also included for comparison. Western blot analysis was performed to examine the expression of pNF-κB, the activated form of NF-κB, and Lamin B was used as a control for nuclear protein quantification.

[5] = molecular target: T1, dopamine receptor 1 (D1R) (Mus musculus, UniProt Q61616); experiment: Protein-ligand interaction (CETSA); type: binding
T1 construct: endogenous in cells; BV2 inferred
Experimental: (§3) This experiment was conducted to identify the receptor targeted by VD. Dopamine receptors (D1-D5) are present on the membranes of neurons, microglia, and astrocytes. The study aimed to determine through which pathway VD exerts its anti-inflammatory effects. Since dopamine receptors are broadly classified into the D1-like and D2-like families, representative dopamine receptor 1 (D1R) and dopamine receptor 2 (D2R) were evaluated using CETSA.

[6] = molecular target: T2, dopamine receptor 2 (D2R) (Mus musculus, UniProt P61168); experiment: Protein-ligand interaction (CETSA); type: binding
T2 construct: endogenous in cells; BV2 inferred
Experimental: as §3

[7] = test system: dementia mouse model (5xFAD); experiment: Water maze experiment (cognitive function); type: in vivo
Excerpt: Latency to Target represents the time required to reach the target platform. As dementia progresses, cognitive function declines, leading to increased latency.
Occupancy in Target Quadrant refers to the extent to which the mice reached or remained in the quadrant containing the target. […] Number of Target Crossings represents the number of times the mice crossed the location of the target platform.

[8] = 2 mg/kg and 4 mg/kg, IV six times over 20 days

T1 sequence (Q61616 whole entry): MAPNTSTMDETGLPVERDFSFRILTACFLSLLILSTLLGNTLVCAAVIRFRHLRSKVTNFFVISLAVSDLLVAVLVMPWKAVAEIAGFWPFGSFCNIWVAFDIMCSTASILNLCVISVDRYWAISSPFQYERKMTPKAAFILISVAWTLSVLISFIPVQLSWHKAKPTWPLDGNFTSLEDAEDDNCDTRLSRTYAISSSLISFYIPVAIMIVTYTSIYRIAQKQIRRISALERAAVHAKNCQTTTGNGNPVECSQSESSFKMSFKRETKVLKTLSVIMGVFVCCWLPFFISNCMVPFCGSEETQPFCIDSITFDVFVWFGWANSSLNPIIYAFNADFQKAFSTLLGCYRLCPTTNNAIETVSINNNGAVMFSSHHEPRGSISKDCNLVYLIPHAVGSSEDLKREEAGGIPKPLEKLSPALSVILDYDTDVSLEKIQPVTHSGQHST
T2 sequence (P61168 whole entry): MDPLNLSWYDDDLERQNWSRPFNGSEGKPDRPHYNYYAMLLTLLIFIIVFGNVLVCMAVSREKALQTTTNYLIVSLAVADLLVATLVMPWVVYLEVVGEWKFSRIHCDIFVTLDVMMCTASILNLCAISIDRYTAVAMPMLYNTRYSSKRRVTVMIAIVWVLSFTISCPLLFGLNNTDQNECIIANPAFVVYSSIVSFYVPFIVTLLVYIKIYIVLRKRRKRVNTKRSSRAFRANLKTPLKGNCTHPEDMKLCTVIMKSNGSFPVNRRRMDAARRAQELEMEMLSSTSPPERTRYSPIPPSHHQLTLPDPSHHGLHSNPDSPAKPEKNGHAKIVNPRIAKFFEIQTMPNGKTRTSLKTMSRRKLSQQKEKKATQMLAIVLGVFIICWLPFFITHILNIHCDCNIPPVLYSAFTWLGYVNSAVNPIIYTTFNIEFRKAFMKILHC

CETSA change in D1R [5]: a change was observed | CETSA change in D2R [6]: no significant change
Structure (SMILES): COc1cc(C(=O)NCCc2ccc(O)c(O)c2)ccc1O [VD]
pCREB/CREB ratio (CREB): significant increase | expression of inflammatory cytokines [1]: reduced | expression of phosphorylated tau [1]: reduced | expression of β-amyloid [1]: reduced | expression of BACE-1 [1, 8]: suppressed | expression of GFAP [1, 8]: suppressed | expression of IBA-1 [1, 8]: suppressed | expression of NLRP3 [1, 8]: suppressed | cell viability (cytotoxicity) (BV2 cells [2]; 0-100 µM): little to no cytotoxicity | cell viability (cytotoxicity) (BV2 cells [2]; 200 µM or more): slight cytotoxicity | viability at 100 µM ([3]; 100 µM): 84.7% | viability at 200 µM ([3]; 200 µM): 60.1% | viability at 400 µM ([3]; 400 µM): 43.1% | intensity of NLRP3 (NLRP3): effectively reduced | intensity of iNOS (iNOS): same pattern as NLRP3 | intensity of TNF-α (TNF-α): same pattern as NLRP3 | intensity of IL-6 (IL-6): same pattern as NLRP3 | NO secretion (BV2 cells [4]): lower NO secretion | activation of NF-κB (pNF-κB) (NF-κB): significantly reduced | Latency to Target ([7]; 4 mg/kg VD-treated group): most significant improvement | Number of Target Crossings ([7]; 4 mg/kg group vs untreated dementia mice): notably higher | Number of Target Crossings ([7]; VD-treated group vs untreated dementia mice): more frequently | Occupancy in Target Quadrant ([7]; VD-treated groups, particularly 4 mg/kg, vs untreated dementia mice): higher occupancy rate | Latency to Target ([7]; VD-treated vs untreated dementia mice): shorter
